Laboratory results from article PMC7822874, “Chemoprotective antimalarials identified through quantitative high-throughput screening of Plasmodium blood and liver stage parasites” (Scientific Reports, 2021).
Read-outs that look alike come from different tables or passages of the source.

Legend:
[1] = test system: P. berghei-ANKA-GFP-LucCON liver stage parasites in HepG2-A16-CD81EGFP cells; test: P. berghei liver stage Pb-Luc assay, Method 1 (UCSD, 1536-well); type: cell-based, Plasmodium berghei; conditions: Plasmodium berghei, 48 h, P. berghei liver stage, average of 2 wells on a 1536 well plate; for activity at 1 µM: 1 µM compound treatment (10 mM stocks); for activity at 3 µM: 3 µM compound treatment (10 mM stocks)
[2] = test system: Plasmodium falciparum Dd2 asexual blood stage parasites; test: microbe, parasite or virus in culture; parameters: species or system Plasmodium falciparum Dd2 in human erythrocytes; single determination (one 11-point concentration-response curve); conditions: Plasmodium falciparum, DD2, Erythrocyte, 72 h; read-out: AC50
HepG2-A16-CD81EGFP cells = conditions: average of 2 wells; for HepG2 1uM growth rep1 / HepG2 1uM growth rep2: HepG2, 1 µM compound treatment (10 mM stocks); for HepG2 1uM growth rep1 / HepG2 3uM growth rep1: replicate 1, normalized; for HepG2 1uM growth rep2 / HepG2 3uM growth rep2: replicate 2, normalized; for HepG2 3uM growth rep1 / HepG2 3uM growth rep2: HepG2, 3 µM compound treatment (10 mM stocks)
[3] = replicate 1, normalized, read-out: PbLuc 1uM growth rep1
[4] = replicate 2, normalized, read-out: PbLuc 1uM growth rep2
[5] = replicate 1, normalized, read-out: PbLuc 3uM growth rep1
[6] = replicate 2, normalized, read-out: PbLuc 3uM growth rep2

| SMILES | activity at 1 µM [1, 3] | activity at 1 µM [1, 4] | activity at 3 µM [1, 5] | activity at 3 µM [1, 6] | AC50 [2] | HepG2 1uM growth rep1 (HepG2-A16-CD81EGFP cells) | HepG2 1uM growth rep2 (HepG2-A16-CD81EGFP cells) | HepG2 3uM growth rep1 (HepG2-A16-CD81EGFP cells) | HepG2 3uM growth rep2 (HepG2-A16-CD81EGFP cells) |
| --- | --- | --- | --- | --- | --- | --- | --- | --- | --- |
| CCCC(C)C(=O)Nc1ncc(S(=O)(=O)c2ccc([N+](=O)[O-])cc2)s1 (stereo not drawn) [MLS001034555-01] | 109% | 117% | 105% | 136% | 5960 nM | 95% | 92% | 93% | 94% |
| O=C(CSc1nc(Nc2ccccc2)nc(N2CCOCC2)n1)Nc1cc(Cl)ccc1O [MLS001035450-01] | 97% | 93% | 67% | 102% | 2370 nM | 100% | 92% | 83% | 88% |
| COc1cccc(NC(=O)CN(C)C(=O)c2ccc(-c3cccc(C(F)(F)F)c3)o2)c1 [MLS001071804-01] | 153% | 125% | 107% | 104% | 596 nM | 105% | 98% | 84% | 96% |
| CCCCN(C(=O)c1cccc(S(=O)(=O)N(C)c2ccc(C)cc2)c1)c1c(N)n(CCCC)c(=O)[nH]c1=O [MLS001128188-01] | 100% | 88% | 85% | 111% | 5310 nM | 96% | 92% | 90% | 93% |
| Cc1ccc(-c2c(C(=O)N/N=C/c3cccc(Cl)c3)nnn2-c2nonc2N)cc1 [MLS001139410-01] | 143% | 123% | 105% | 91% | 237 nM | 90% | 91% | 90% | 94% |
| Nc1nonc1-n1nnc(C(=O)N/N=C/c2ccc(Br)cc2)c1-c1ccc2c(c1)OCO2 [MLS001142619-01] | 115% | 112% | 108% | 122% | 422 nM | 91% | 88% | 86% | 93% |
| COc1ccc(NC(=O)C(c2ccc(Cl)cc2)C(C)C)cn1 (stereo not drawn) [MLS001149289-01] | 131% | 130% | 155% | 159% | 1880 nM | 104% | 98% | 90% | 87% |
| Cc1ccnc(NC(=O)c2cccc(S(=O)(=O)N3CCCc4ccccc43)c2)c1 [MLS001159724-01] | 100% | 97% | 38% | 52% | 2370 nM | 101% | 95% | 90% | 89% |
| CCOC(=O)C1CCN(Cc2cc(Cl)c3ccccc3c2O)CC1 [MLS001171913-01] | 100% | 93% | 91% | 110% | 1880 nM | 88% | 93% | 88% | 86% |
| CC(NCc1ccccc1O)C12CC3CC(CC(C3)C1)C2 (stereo not drawn) [MLS001173343-01] | 106% | 90% | 70% | 88% | 94.4 nM | 109% | 103% | 93% | 102% |
